Tests used:
[1] = tested on: Jurkat cells; assay: 96-well plate freezing, post-thaw scaled raw recovery (calcein-AM/PI); type: cell-based
Procedure: The first phase of this study involved using the DE algorithm to develop a three-component cryopreservation solution used at a single cooling rate (1° C./min). Three components (trehalose, glycerol, and ectoine (TGE)) were selected as components of the exemplary freezing medium used for preservation of Jurkat cells, a hematopoietic model cell type, based on pre-screening of multiple non-DMSO components. For this single cooling rate study, the DE algorithm was programmed to output 18 vector solutions per generation with a weight=0.85 and a crossover=1. Jurkat cells cryopreserved in 10% DMSO at a cooling rate of 1° C./min were used as a control.
Cooling rate influences cell survival, and the preferred cooling rate for a given application can depend, at least in part, on the composition of the freezing medium and the cell type being frozen. […] To assess both cooling rate and the composition of the solution, the DE algorithm was programmed to output 27 vector solutions per generation with weight=0.85 and a crossover=1. Solutions were separated into categories based on their DE algorithm defined cooling rate, and were frozen in batches at a cooling rate of […], 0.5° C./min, 1° C./min, 3° C./min, 5° C./min, or 10° C./min. Results were normalized and scaled raw recovery is reported, allowing results from all cooling rates and all generations to be compared directly. […]
After 96 well plates were thawed, calcein-acetoxymethyl (AM)/propidium iodide was added to each well and the wells were covered from light and placed in a 37° C. incubator for 30 minutes to allow the live cells to cleave calcein-AM. The plates were then analyzed for fluorescence on a plate reader. Raw fluorescence values were used to calculate the number of live and dead cells present in each well by correlating to a control curve of unfrozen cells. The live cell recovery was calculated by dividing the number of live cells present in thawed samples (calcein-AM plate reader fluorescence) by the number of live cells seeded pre-freeze (AO/PI counts). […]

[2] = 10% DMSO solution; cited from earlier work
[3] = tested on: MSCs (CD73, CD90, CD105, CD45); assay: Surface marker characterization by flow cytometry; type: cell-based, human; settings: frozen MSCs
Description: Cells were suspended to a concentration of 1×10^6 cells/ml in media and stained with a panel of the following antibodies: mouse IgG1 anti-human CD73 (APC-conjugated, BD Biosciences, San Jose, Calif., clone AD2), mouse IgG1 anti-human CD90 (FITC-conjugate, clone 5E10, Molecular Probes, Eugene, Oreg.), mouse IgG1 anti-human CD105 (PE-conjugated, R&D Systems, Inc., Minneapolis, Minn. clone 166707) and mouse IgG1 anti-human CD45 (BV421-conjugated, clone HI30, BD Biosciences, San Jose, Calif.). Cells were incubated with antibodies for 30 minutes at 4° C. Flow cytometry was performed on a flow cytometer (LSR II, BD Biosciences, San Jose, Calif.) at low flow rate with the fine adjust knob five turns from max. At least 15,000 events were recorded for each sample. Cell populations were gated for forward and side scatter compared to unstained MSCs and CD45 expressing Jurkat cells as, respectively, negative and positive controls to establish boundaries for fluorescent signals.

[4] = tested on: Jurkat cells; assay: Raman microscopy cell penetration study of cryoprotectants; type: cell-based; settings: Raman microscopy, at room temperature and at freezing temperatures
Procedure: Raman microscopy data provides an indication of the location of action of each cryopreservative. The images in FIG. 12 show Jurkat cells frozen in either glycerol (penetrating) or trehalose (non-penetrating).
These experiments were performed for most of the components described in the sections above both at room temperature and at freezing temperatures to assess whether penetration was temperature dependent.
Confocal Raman Microspectroscopy (CRM) measurements are conducted using Witec Confocal Raman Microscope System Alpha 300R (WITec, Wissenschaftliche Instrumente und Technologie GmbH, Ulm, Germany) with UHTS300 spectrometer and DV401 CCD detector. A wavelength of 532 nm Nd:YAG laser and 10 mW of power is used as excitation source. The laser is transferred to the microscopy in a singer fiber. A 100× air objective (NA 0.90; Nikon Instruments, Melville, N.Y.) is used for focusing the 532 nm excitation laser to the sample. Data collection and analysis are performed by Windows-based WitecControl_1.38 software.

| Penetration [4] | Structure (SMILES) | recovery of Jurkat cells ([1]; 10% DMSO at 1° C./min, control, 96-well) | osmolarity [2] | expression of negative surface marker CD45 [3] | expression of positive surface markers CD73, CD90, CD105 [3] | recovery of Jurkat cells, sugar synergy study ([1]; 150, 300, 600 mM total sugar, FIG. 8) |
| --- | --- | --- | --- | --- | --- | --- |
|  | C[S+](C)[O-] [DMSO, dimethyl sulfoxide] | 16% | ~1400 mOsm | < 1% | > 99% |  |
| Yes | OC[C@H]1O[C@@](CO)(O[C@H]2O[C@H](CO)[C@@H](O)[C@H](O)[C@H]2O)[C@@H](O)[C@@H]1O [Sucrose] |  |  |  |  | outperformed monosaccharides |
